According to ChEMBL document CHEMBL4831503, “Design, synthesis, in vitro and in vivo anti-respiratory syncytial virus (RSV) activity of novel oxizine fused benzimidazole derivatives” (Eur J Med Chem, 2021):
Calls of active or inactive are those of the source. The calls are words filed in the database; no cut-off is given here.

Legend:
[1] = system: Respiratory syncytial virus; experiment: Antiviral activity against RSV Long infected in BALB/c mouse assessed as reversal of virus infection induced weight loss at 25 to 100 mg/kg/day administered via gastric gavage once daily for 6 days; assay type: functional, organism-based; conditions: dose 25-100 mg/kg/day, time 6.0 day
[2] = system: Respiratory syncytial virus; experiment: Antiviral activity against RSV infected in human HEp-2 cells assessed as downregulation of RIG-1 expression at 25 to 50 uM treated 48 hpi and measured after 48 hrs by Western blot analysis; assay type: functional, organism-based; conditions: dose 25-50 µM
[3] = system: Respiratory syncytial virus; experiment: Antiviral activity against Respiratory syncytial virus Long infected in human HEp-2 cells assessed as reduction in viral infection incubated for 60 hrs by MTT assay; assay type: functional, organism-based; conditions: HEp-2, 60 h
HEp-2 [4] = experiment: Induction of ROS production in human HEp-2 cells assessed as accumulation of ROS-positive cells at 25 uM measured after 36 hrs by DCHF-DA staining based flow cytometry analysis (reference value: 48.2%); assay type: functional
HEp-2 [5] = experiment: Induction of apoptosis in human HEp-2 cells assessed as early apoptotic cells at 25 uM measured after 60 hrs by Annexin V-FITC/PI staining based flow cytometry analysis (reference value: 0.1%); assay type: functional
[6] = system: Respiratory syncytial virus; experiment: Antiviral activity against RSV infected in BALB/c mouse assessed as downregulation of TNF-alpha expression in lung tissue infected with RSV at 25 to 100 mg/kg/day measured after 2 to 6 days post infection by RT-PCR analysis; assay type: functional, organism-based; conditions: dose 25-100 mg/kg/day, time 2-6 day
[7] = system: Respiratory syncytial virus; experiment: Antiviral activity against RSV infected in human HEp-2 cells assessed as decrease in virus induced RIG-1 gene expression measured after 48 hrs by RT-PCR analysis; assay type: functional, organism-based
[8] = system: Respiratory syncytial virus; experiment: Inhibition of RSV induced apoptosis in human HEp-2 cells assessed as late apoptotic cells at 50 uM measured after 60 hrs by Annexin V-FITC/PI staining based flow cytometry analysis (reference value: 20.2%); assay type: functional; set-up: scale not given: the % may be the effect or the level left
[9] = system: Respiratory syncytial virus; experiment: Antiviral activity against RSV infected in human HEp-2 cells assessed as decrease in virus induced TBK1 gene expression measured after 48 hrs by RT-PCR analysis; assay type: functional, organism-based
[10] = system: Respiratory syncytial virus; experiment: Inhibition of RSV induced apoptosis in human HEp-2 cells assessed as reduction in cleaved caspase-9 expression measured after 48 hrs by Western blot analysis; assay type: functional, organism-based
[11] = system: Respiratory syncytial virus; experiment: Antiviral activity against Respiratory syncytial virus infected in human HEp-2 cells assessed as reduction in viral infection incubated for 60 hrs by MTT assay; assay type: functional, organism-based; conditions: dose 3.125-50 µM
[12] = system: Respiratory syncytial virus; experiment: Antiviral activity against RSV Long infected in BALB/c mouse assessed as reduction in lung tissue damage by measuring lung index at 25 to 100 mg/kg/day measured after 4 to 6 days of virus infection; assay type: functional, organism-based; conditions: dose 25-100 mg/kg/day, time 4-6 day
[13] = system: Respiratory syncytial virus; experiment: Antiviral activity against RSV Long infected in BALB/c mouse assessed as lung edema at 25 mg/kg/day observed on day 6 after infection by H and E staining based microscopic analysis; assay type: functional, organism-based; conditions: time 6.0 day
[14] = system: Respiratory syncytial virus; experiment: Inhibition of RSV induced apoptosis in human HEp-2 cells assessed as early apoptotic cells at 25 uM measured after 60 hrs by Annexin V-FITC/PI staining based flow cytometry analysis (reference value: 10.3%); assay type: functional; set-up: scale not given: the % may be the effect or the level left
[15] = system: Respiratory syncytial virus; experiment: Antiviral activity against RSV infected in human HEp-2 cells assessed as decrease in virus induced TRAF3 gene expression measured after 48 hrs by RT-PCR analysis; assay type: functional, organism-based
[16] = system: Respiratory syncytial virus; experiment: Inhibition of RSV induced apoptosis in human HEp-2 cells assessed as late apoptotic cells at 25 uM measured after 60 hrs by Annexin V-FITC/PI staining based flow cytometry analysis (reference value: 20.2%); assay type: functional; set-up: scale not given: the % may be the effect or the level left
[17] = system: Respiratory syncytial virus; experiment: Antiviral activity against RSV infected in BALB/c mouse assessed as downregulation of RIG-1 expression in lung tissue infected with RSV at 25 to 100 mg/kg/day measured after 2 to 4 days post infection by RT-PCR analysis; assay type: functional, organism-based; conditions: dose 25-100 mg/kg/day, time 2-4 day
Human orthopneumovirus [18] = experiment: Antiviral activity against Respiratory syncytial virus A2 infected in human HEp-2 cells assessed as reduction in viral infection up to 50 uM treated 2 hpi measured after 60 hrs by MTT assay; assay type: functional, organism-based; conditions: dose microM <=50, time 60.0 hrs
[19] = system: Respiratory syncytial virus; experiment: Antiviral activity against Respiratory syncytial virus infected in human HEp-2 cells incubated for 60 hrs by MTT assay; assay type: functional, organism-based; conditions: HEp-2, 60 h
[20] = system: Respiratory syncytial virus; experiment: Antiviral activity against Respiratory syncytial virus Long infected in human A549 cells assessed as reduction in viral infection incubated for 60 hrs by MTT assay; assay type: functional, organism-based; conditions: A549, 60 h
[21] = system: Respiratory syncytial virus; experiment: Inhibition of RSV induced apoptosis in human HEp-2 cells assessed as reversal of virus induced increase in Bax/Bcl-2 ratio at 25 to 50 uM measured after 36 hrs by Western blot analysis; assay type: functional, organism-based; conditions: dose 25-50 µM
[22] = system: Respiratory syncytial virus; experiment: Inhibition of RSV induced apoptosis in human HEp-2 cells assessed as reduction in PARP cleavage measured after 48 hrs by Western blot analysis; assay type: functional, organism-based
Human orthopneumovirus [23] = experiment: Antiviral activity against Respiratory syncytial virus A2 infected in African green monkey Vero cells assessed as reduction in viral infection incubated for 60 hrs by MTT assay; assay type: functional, organism-based
[24] = system: Respiratory syncytial virus; experiment: Antiviral activity against Respiratory syncytial virus infected in human HEp-2 cells assessed as reduction in RSV-F gene expression at 25 uM measured after 24 to 60 hpi by RT-PCR analysis; assay type: functional, organism-based; conditions: time 24-60 hrs
HEp-2 [25] = experiment: Inhibition of RSV induced autophagy flux in RSV-infected infected human HEP-2 cells by measuring p62 expression at 25 to 50 uM measured after 24 hrs by Western blot analysis; assay type: functional, cell-based; conditions: Respiratory syncytial virus, dose 25-50 µM

In the case of Cc1c(Br)cc2nc3n(c2c1Br)[C@H]1OC[C@@H](O)[C@H]1OC3, the Activity [1] is reported as “Active”, the Activity [2] is reported as “Active” and the EC50 [3] is reported as 9.49 µM. For the same compound, the Activity (HEp-2 [4]) was 53.1%, the Activity (HEp-2 [5]) was 0.4% and the Activity [6] was “Active”. The Activity [7] was “Dose-Dependent Effect”, the Activity [8] was 2.2% and the Activity [9] was “Dose-Dependent Effect”. For the same compound, the inhibition [10] was “Active”, the Activity [11] was “Dose-Dependent Effect” and the Activity [12] was “Active”. For the same compound, the Activity [13] was “Active”, the Activity [14] was 12% and the Activity [15] was “Dose-Dependent Effect”. For the same compound, the Activity [16] was 1.8%, the Activity [17] was “Active” and the Activity (Human orthopneumovirus [18]) was “Active”. The EC50 [19] was 9.49 µM, the EC50 [20] was 13.3 µM and the inhibition [21] was “Active”. For the same compound, the inhibition [22] was “Active”, the EC50 (Human orthopneumovirus [23]) was 15.5 µM and the Activity [24] was “Active”. The Activity (HEp-2 [25]) was “Active”.
